For 7 compounds, IC50 results are on record in PMC11256303 (ACS Omega, 2024).

By IC50 is commonly meant the concentration that inhibits the measured activity by half.

This test deals with α-amylase. As to the kind of experiment: in vitro α-amylase inhibition. The class given is biochemical. The following applies: read-out: alpha-amylase IC50 ± SEM, standard acarbose.
As for `Clc1ccc(/C=N\c2nsc(Nc3ccc(Cl)c(Cl)c3)n2)cc1Cl` [Compound 6], the IC50 was determined as 1.9 ± 0.1 µM.
With `COc1ccccc1/C=N\c1nsc(Nc2ccc(Cl)c(Cl)c2)n1` [Compound 8], the IC50 turned out to be 16.2 ± 0.3 µM.
Then `FC(F)(F)c1cccc(Nc2nc(/N=C\c3ccc(Cl)cc3)ns2)c1` [Compound 13], with 1.5 ± 0.1 µM.
`Cc1ccc(/C=N\c2nsc(Nc3ccc(Cl)c(Cl)c3)n2)cc1` [Compound 4]: the IC50 worked out at 15.3 ± 0.3 µM.
Then `COc1cccc(/C=N\c2nsc(Nc3ccc(Cl)c(Cl)c3)n2)c1` [Compound 5], with 17.7 ± 0.3 µM.
Then `Clc1ccc(Nc2nc(/N=C\c3ccc(Br)cc3)ns2)cc1Cl` [Compound 7], with 20.1 ± 0.4 µM; and `FC(F)(F)c1cccc(Nc2nc(/N=C/c3ccc(Cl)cc3Cl)ns2)c1` [Compound 15, (E)-3-((2,4-dichlorobenzylidene)amino)-N-(3-(trifluoromethyl)phenyl)-1,2,4-thiadiazol-5-amine], with 0.8 ± 0.05 µM.
